The text below walks through data of US8178873B2, “Solution processable organic semiconductors” (3M Innovative Properties Company, priority 2007, dated 2012).

Data set [1] can be described thus: Solubility measurement in n-butylbenzene. The format is physicochemical. The following applies: room temperature, weight percent based on total solution weight. The method, then:
The solubility of the small molecule semiconductor was measured in n-butylbenzene at room temperature. The weight percent is based on the total solution weight. Typically, the solubility is lower in n-butylbenzene compared to halogenated solvents such as chloroform, chlorobenzene, and dichlorobenzene.

The nature of data set [2]: Differential Scanning Calorimetry, thermal stability. The format is physicochemical. The conditions noted are these: DSC, heated from 30 to 360° C. at 10° C. per minute. How it is done:
Differential Scanning Calorimetry Measurement
Differential Scanning Calorimeter (DSC, TA Instruments 2920 from TA Instruments of New Castle, Del.) was used to measure phase transition and melting point of the small molecule semiconductors. Examples 1 to 8 were heated from 30 to 350° C. at a heating rate of 10° C. per minute. […] No decomposition was observed up to the 350° C. of the testing range. […] Example 9 was heated from 30 to 360° C. at a heating rate of 10° C. per minute. […] Example 9 started to decompose around 357° C.
Background: In DSC, transitions show as peaks or steps in heat flow.

The term melting point denotes the temperature of the solid-liquid transition. `CC(C)[Si](C#Cc1c2ccc(-c3cccs3)cc2c(C#C[Si](C(C)C)(C(C)C)C(C)C)c2ccc(-c3cccs3)cc12)(C(C)C)C(C)C` [Example 1, 2,6-Bis(thiophene-2-yl)-9,10-bis-[(triisopropylsilyl)ethynyl]anthracene] came in with a melting point of 293 °C. In data set [1], the “Solubility in butyl benzene” value is listed as 0.05 wt %.

`Cc1ccc(-c2ccc3c(C#C[Si](C(C)C)(C(C)C)C(C)C)c4cc(-c5ccc(C)s5)ccc4c(C#C[Si](C(C)C)(C(C)C)C(C)C)c3c2)s1` [Example 2, 2,6-Bis(5-methyl-thiophene-2-yl)-9,10-bis-[(triisopropylsilyl)ethynyl]anthracene] had a melting point of 333 °C. Besides, in data set [1], the “Solubility in butyl benzene” value was 0.05 wt %.

In turn, `Cc1ccsc1-c1ccc2c(C#C[Si](C(C)C)(C(C)C)C(C)C)c3cc(-c4sccc4C)ccc3c(C#C[Si](C(C)C)(C(C)C)C(C)C)c2c1` [Example 3, 2,6-Bis(3-methyl-thiophene-2-yl)-9,10-bis-[(triisopropylsilyl)ethynyl]anthracene] had a melting point of 237.6 °C. Further, the “Solubility in butyl benzene” value in data set [1] was 2.3 wt %.

Molecule `CCc1ccc(-c2ccc3c(C#C[Si](C(C)C)(C(C)C)C(C)C)c4cc(-c5ccc(CC)s5)ccc4c(C#C[Si](C(C)C)(C(C)C)C(C)C)c3c2)s1` [Example 4, 2,6-Bis(5-ethyl-thiophene-2-yl)-9,10-bis-[(triisopropylsilyl)ethynyl]anthracene] showed a melting point of 274.6 °C. In addition, in data set [1], the “Solubility in butyl benzene” value came out at 1.4 wt %.

As to `CCCc1ccc(-c2ccc3c(C#C[Si](C(C)C)(C(C)C)C(C)C)c4cc(-c5ccc(CCC)s5)ccc4c(C#C[Si](C(C)C)(C(C)C)C(C)C)c3c2)s1` [Example 5, 2,6-Bis(5-propyl-thiophene-2-yl)-9,10-bis-[(triisopropylsilyl)ethynyl]anthracene], the melting point is 208.3 °C. The “Solubility in butyl benzene” value in data set [1] was determined as 1.4 wt %.

As for `CCCCCCc1ccc(-c2ccc3c(C#C[Si](C(C)C)(C(C)C)C(C)C)c4cc(-c5ccc(CCCCCC)s5)ccc4c(C#C[Si](C(C)C)(C(C)C)C(C)C)c3c2)s1` [Example 6, 2,6-Bis(5-hexyl-thiophene-2-yl)-9,10-bis-[(triisopropylsilyl)ethynyl]anthracene], the melting point was found to be 190.3 °C. In data set [1], the “Solubility in butyl benzene” value is 2.5 wt %.

On to `CCCCCCc1ccsc1-c1ccc2c(C#C[Si](C(C)C)(C(C)C)C(C)C)c3cc(-c4sccc4CCCCCC)ccc3c(C#C[Si](C(C)C)(C(C)C)C(C)C)c2c1` [Example 7, 2,6-Bis(3-hexyl-thiophene-2-yl)-9,10-bis-[(triisopropylsilyl)ethynyl]anthracene], for which the melting point was 141.8 °C. Further, the “Solubility in butyl benzene” value in data set [1] came to 4.2 wt %.

`CC(C)[Si](C#Cc1c2ccc(-c3ccc(-c4cccs4)s3)cc2c(C#C[Si](C(C)C)(C(C)C)C(C)C)c2ccc(-c3ccc(-c4cccs4)s3)cc12)(C(C)C)C(C)C` [Example 8, 2,6-Bis(2,2′-bithiophene-5-yl)-9,10-bis-[(triisopropylsilyl)ethynyl]anthracene] registered a melting point of 299 °C. Also, the “Solubility in butyl benzene” value in data set [1] was determined as 0.2 wt %.

The molecule `CC(C)[Si](C#Cc1c2ccc(-c3ccc(C=O)s3)cc2c(C#C[Si](C(C)C)(C(C)C)C(C)C)c2ccc(-c3ccc(C=O)s3)cc12)(C(C)C)C(C)C` [Example 9, 2,6-Bis(5-formyl-thiophene-2-yl)-9,10-bis-[(triisopropylsilyl)ethynyl]anthracene] yielded a melting point greater than 350 °C. Further, the “Temperature at which decomposition started” value in data set [2] is “around 357 °C”. Moreover, in data set [1], the “Solubility in butyl benzene” value was determined as 0.04 wt %.
